Results as given in patent US20220409620A1, “REDUCING IMMUNOGENICITY TO PEGLOTICASE” (Horizon Pharma Rheumatology LLC, priority 2016, published 2022).

Test system: adult patients with uncontrolled gout
Experiment: Serum uric acid (sUA) levels and sUA responder rate, open-label study of pegloticase with MTX (MIRROR OL)
Format: in vivo, human
Details: Month 6 sUA Responders
Description: The primary objective is to estimate the response rate during Month 6 (Weeks 20, 22, and 24), as measured by the sustained normalization of serum uric acid (SUA) to <6 mg/dL for at least 80% of the time during Month 6 in subjects receiving KXX with MTX.
The primary efficacy outcome endpoint is the sustained normalization of SUA to <6 mg/dL for at least 80% of the time during month 6 (weeks 20, 22, and 24) in subjects receiving KXX with MTX. […] Participants who achieve this endpoint were classified as “responders.” Serum uric acid (SUA) responders may also be defined as participants achieving and maintaining SUA <6 mg/dL for at least 80% of the time during Month 6 (Weeks 20, 22, and 24).
Blood samples may be collected prior to each pegloticase infusion for measurement of SUA levels using the Beckman Coulter AU System Uric Acid procedure. Participants were declared “non-responders” if there were SUA measures >6 mg/dL at 2 consecutive study visits beginning with the week 2 visit. […] This assumption and subsequent discontinuation of pegloticase was consistent with the protocol of large phase III randomized controlled trials and the product label. A formal stopping rule was 2 occasions of SUA levels of greater than 6 mg/dL.
Clinical Chemistry—Blood samples were collected prior to each pegloticase infusion for measurement of SUA levels (primary efficacy parameter) using the Beckman Coulter AU System Uric Acid procedure. In this procedure uric acid is converted to hydrogen peroxide. Hydrogen peroxide reacts with reagent to produce a chromophore which is read bichromatically at 660/800 nm. The amount of dye formed is proportional to the uric acid concentration in the sample.
Serum samples for measurement of SUA levels were collected at the Screening Visit, the Week −4 Visit (prior to the first dose of MTX), and the Week −2 Visit during the MTX Run-in Period; within 48 hours prior to each pegloticase infusion and after the end of each pegloticase infusion prior to discharge from the site during the Pegloticase+IMM Period; at the non-infusion Week 52/End of Study/Early Termination Visits and at the Post Treatment 3 and 6 Month Follow-up Visits. Additional serum samples for SUA levels were collected at optional non-infusion (Frequent Sampling) Visits at Weeks 1 and 7. […] Subjects with SUA level >6 mg/dL at 2 consecutive visits beginning at Week 2 visit discontinued treatment, completed the End of Pegloticase Infusion Visit procedures within 2 weeks and continued the subject visits according to the protocol (without treatment).
Efficacy analyses were performed using the modified intention-to-treat (mITT) population, defined as all enrolled subjects who received ≥1 dose of pegloticase. The proportion of Month 6 responders was summarized, along with a 95% confidence interval for the proportion. The proportion of Month 3 and overall (Months 3 and 6 combined) responders was analyzed similarly.
A subject was declared a non-responder if the subject had SUA level >6 mg/dL at 2 consecutive study visits beginning with the Week 2 Visit. In addition, a subject who withdraws from study treatment for any reason after the first dose of pegloticase in the KXX+MTX Period and prior to Month 6 (for the primary endpoint) or Month 3 (for the secondary endpoint) was considered a non-responder if SUA values were not collected at the planned time points.
Patients were administered oral MTX (15 mg/week) and folate (1 mg/day) 4 weeks prior to the first pegloticase infusion (Day 1) and throughout the pegloticase treatment period. Blood was drawn prior to each infusion to measure sUA level, monitor clinical parameters, and examine for ADA development. All patients followed typical IR prophylaxis protocols (fexofenadine one day before and the morning of each infusion and acetaminophen and IV corticosteroid the morning of each infusion).

[1] = End of Pegloticase Infusions Visit, n=2

pegloticase
Serum Uric Acid, Observed, Median (Day 1-Post-Infusion, n=8): 0.30 mg/dL
sUA <6 mg/dL, n (%) (Day 1-Post-Infusion, n=8): 8 (100%)
Serum Uric Acid, Change from Baseline, Mean (SD) [1]: −8.50 (1.556) mg/dL
Serum Uric Acid, Change from Baseline, Median [1]: -8.50 mg/dL
Serum Uric Acid, Observed, Mean (SD) [1]: 0.30 (0.000) mg/dL
Serum Uric Acid, Observed, Median [1]: 0.30 mg/dL
sUA <6 mg/dL, n (%) [1]: 2 (100%)
Serum Uric Acid, Change from Baseline, Mean (SD) (Week 1, n=4): −6.88 (1.836) mg/dL
Serum Uric Acid, Change from Baseline, Median (Week 1, n=4): -7.15 mg/dL
Serum Uric Acid, Observed, Mean (SD) (Week 1, n=4): 0.30 (0.000) mg/dL
Serum Uric Acid, Observed, Median (Week 1, n=4): 0.30 mg/dL
sUA <6 mg/dL, n (%) (Week 1, n=4): 4 (100%)
Serum Uric Acid, Change from Baseline, Mean (SD) (Week 2-Post-Infusion, n=11): −8.97 (2.810) mg/dL
Serum Uric Acid, Change from Baseline, Median (Week 2-Post-Infusion, n=11): -8.80 mg/dL
Serum Uric Acid, Observed, Mean (SD) (Week 2-Post-Infusion, n=11): 0.30 (0.000) mg/dL
Serum Uric Acid, Observed, Median (Week 2-Post-Infusion, n=11): 0.30 mg/dL
sUA <6 mg/dL, n (%) (Week 2-Post-Infusion, n=11): 11 (100%)
Serum Uric Acid, Change from Baseline, Mean (SD) (Week 2-Pre-Infusion, n=11): −8.64 (2.086) mg/dL
Serum Uric Acid, Change from Baseline, Median (Week 2-Pre-Infusion, n=11): -8.80 mg/dL
Serum Uric Acid, Observed, Mean (SD) (Week 2-Pre-Infusion, n=11): 0.63 (1.096) mg/dL
Serum Uric Acid, Observed, Median (Week 2-Pre-Infusion, n=11): 0.30 mg/dL
sUA <6 mg/dL, n (%) (Week 2-Pre-Infusion, n=11): 11 (100%)
Serum Uric Acid, Change from Baseline, Mean (SD) (Week 4-Post-Infusion, n=11): −8.97 (2.810) mg/dL
Serum Uric Acid, Observed, Mean (SD) (Week 4-Post-Infusion, n=11): 0.30 (0.000) mg/dL
Serum Uric Acid, Change from Baseline, Mean (SD) (Week 4-Pre-Infusion, n=11): −8.59 (2.884) mg/dL
Serum Uric Acid, Change from Baseline, Median (Week 4-Pre-Infusion, n=11): -8.60 mg/dL
Serum Uric Acid, Observed, Mean (SD) (Week 4-Pre-Infusion, n=11): 0.68 (1.043) mg/dL
Serum Uric Acid, Observed, Median (Week 4-Pre-Infusion, n=11): 0.30 mg/dL
sUA <6 mg/dL, n (%) (Week 4-Pre-Infusion, n=11): 11 (100%)
sUA <6 mg/dL, n (%) (Week 7, n=4): 4 (100%)
Serum Uric Acid, Change from Baseline, Mean (SD) (Week 8-Post-Infusion, n=11): −8.97 (2.810) mg/dL
Serum Uric Acid, Change from Baseline, Median (Week 8-Post-Infusion, n=11): -8.80 mg/dL
Serum Uric Acid, Observed, Mean (SD) (Week 8-Post-Infusion, n=11): 0.30 (0.000) mg/dL
Serum Uric Acid, Observed, Median (Week 8-Post-Infusion, n=11): 0.30 mg/dL
sUA <6 mg/dL, n (%) (Week 8-Post-Infusion, n=11): 11 (100%)
Serum Uric Acid, Change from Baseline, Mean (SD) (Week 8-Pre-Infusion, n=11): −8.91 (2.824) mg/dL
Serum Uric Acid, Change from Baseline, Median (Week 8-Pre-Infusion, n=11): -8.60 mg/dL
Serum Uric Acid, Observed, Mean (SD) (Week 8-Pre-Infusion, n=11): 0.37 (0.224) mg/dL
Serum Uric Acid, Observed, Median (Week 8-Pre-Infusion, n=11): 0.30 mg/dL
sUA <6 mg/dL, n (%) (Week 8-Pre-Infusion, n=11): 11 (100%)
Serum Uric Acid, Change from Baseline, Mean (SD) (Week 10-Post-Infusion, n=11): −8.97 (2.810) mg/dL
Serum Uric Acid, Change from Baseline, Median (Week 10-Post-Infusion, n=11): -8.80 mg/dL
Serum Uric Acid, Observed, Mean (SD) (Week 10-Post-Infusion, n=11): 0.30 (0.000) mg/dL
Serum Uric Acid, Observed, Median (Week 10-Post-Infusion, n=11): 0.30 mg/dL
sUA <6 mg/dL, n (%) (Week 10-Post-Infusion, n=11): 11 (100%)
Serum Uric Acid, Change from Baseline, Mean (SD) (Week 10-Pre-Infusion, n=11): −8.97 (2.810) mg/dL
Serum Uric Acid, Change from Baseline, Median (Week 10-Pre-Infusion, n=11): -8.80 mg/dL
Serum Uric Acid, Observed, Mean (SD) (Week 10-Pre-Infusion, n=11): 0.30 (0.000) mg/dL
Serum Uric Acid, Observed, Median (Week 10-Pre-Infusion, n=11): 0.30 mg/dL
sUA <6 mg/dL, n (%) (Week 10-Pre-Infusion, n=11): 11 (100%)
Serum Uric Acid, Change from Baseline, Mean (SD) (Week 12-Post-Infusion, n=10): −9.13 (2.911) mg/dL
Serum Uric Acid, Change from Baseline, Median (Week 12-Post-Infusion, n=10): -9.05 mg/dL
Serum Uric Acid, Observed, Mean (SD) (Week 12-Post-Infusion, n=10): 0.30 (0.000) mg/dL
Serum Uric Acid, Observed, Median (Week 12-Post-Infusion, n=10): 0.30 mg/dL
sUA <6 mg/dL, n (%) (Week 12-Post-Infusion, n=10): 10 (100%)
Serum Uric Acid, Change from Baseline, Mean (SD) (Week 12-Pre-Infusion, n=11): −8.98 (2.806) mg/dL
Serum Uric Acid, Change from Baseline, Median (Week 12-Pre-Infusion, n=11): -8.80 mg/dL
Serum Uric Acid, Observed, Mean (SD) (Week 12-Pre-Infusion, n=11): 0.30 (0.015) mg/dL
Serum Uric Acid, Observed, Median (Week 12-Pre-Infusion, n=11): 0.30 mg/dL
sUA <6 mg/dL, n (%) (Week 12-Pre-Infusion, n=11): 11 (100%)
Serum Uric Acid, Change from Baseline, Mean (SD) (Week 14-Post-Infusion, n=10): −9.01 (2.959) mg/dL
Serum Uric Acid, Change from Baseline, Median (Week 14-Post-Infusion, n=10): -9.05 mg/dL
Serum Uric Acid, Observed, Mean (SD) (Week 14-Post-Infusion, n=10): 0.30 (0.000) mg/dL
